The nature of one data set: in vivo. Particulars: mouse, in vivo; for LD50 at 168 h: ip. How it is done:
(§1) The acute toxicity was determined on groups of 10 or 20 female Swiss mice weighing 20-26 g, using intraperitoneal administration. The LD 50 was calculated (Probit analysis) as the dose following which 50% of the animals died within 7 days.

In another data set the test system is female Swiss mice. Briefly: in vivo. Particulars: versus procainamide. How it is done:
as §1

In data set [1] the test system is ventricular fibrillation threshold. Briefly: Ventricular fibrillation threshold in guinea pigs. It is filed as in vivo, guinea pig. Particulars: intravenous administration. From the text:
Ventricular fibrillation threshold in guinea pigs:

For the next data set, the system named is isolated auricle. The data set can be described thus: Stimulation time/tension relationship (isolated auricle). From the text:
In test models used in respect of the antiarrhythmic effect, the following findings were obtained: Stimulation time/tension relationship (isolated auricle): […]

The subject of data set [2] is aconitine-induced arrhythmia. The data set can be described thus: animal or person. Particulars: for ED50: Rattus norvegicus, po, read-out: Antiarrhythmic effect: effective dose ED 50%; for Maximum effect: Δ% (increase in duration of aconitine infusion): effect of the maximum nontoxic dose (215 for Examples 2 and 3; 681 for procainamide); for Maximum effect: Δ% (increase in duration of aconitine infusion) / Antiarrhythmic effect: R.E. (relative effect) / Maximum effect: R.M.E. (relative maximum effectiveness) / Effect at the maximum dose, higher than that of procainamide / Antiarrhythmic activity greater than that of procainamide: rat, oral; for Antiarrhythmic effect: R.E. (relative effect) / Maximum effect: R.M.E. (relative maximum effectiveness): procainamide = 1.00; for Antiarrhythmic effect: R.E. (relative effect): effective dose; for Effect at the maximum dose, higher than that of procainamide / Antiarrhythmic activity greater than that of procainamide: versus procainamide. It is filed as in vivo, rat (Sprague Dawley). As to the method: The antiarrhythmic activity of the compounds was determined by orally administering these to rats (Sprague Dawley, weight: 180-240 g) 45 minutes before the start of narcosis (100 mg/kg of thiobutabarbital, administered intraperitoneally).
The arrhythmogenous substance used was aconitine, administered by intravenous infusion (at the rate of 0.005 mg/kg.minute) 60 minutes after administration of the compound of the invention.
For a quantitative evaluation of the linear relation between the logarithm of the dose (mg/kg) of the test substances and the relative increase in the duration of infusion of aconitine (Δ%), the dose which increases the duration of infusion by 50% (ED 50%) was determined.

Broadly, the LD50 is the dose expected to kill half of the subjects tested. Higher therefore signals lower toxicity.

Structures can show the parent of a compound that is named as a salt.

`c1ccc2c(-c3ccc(C4=NCCCN4)cc3)nsc2c1` [Example 2, 3-[4-(Tetrahydropyrimidin-2-yl)-phenyl]-1,2-benzisothiazole hydrochloride]: in “in vivo”, the selectivity ratio was found to be 4.03 and the LD50 at 168 h worked out at 126 mg/kg. In addition, in the data set with female Swiss mice, the “Therapeutic range (LD 50 / ED 50%) greater than for procainamide” value is 4 times. Besides, the “Ventricular fibrillation threshold, effect relative to quinidine” value in data set [1] is 1.8 times the effect of quinidine. For the same compound, the “Stimulation time/tension relationship, effect relative to quinidine” value in the data set on isolated auricle is 1.24 times the effect of quinidine. In data set [2], the ED50 is 31.2 mg/kg, the “Maximum effect: Δ% (increase in duration of aconitine infusion)” value is listed as 289%, the “Antiarrhythmic effect: R.E. (relative effect)” value worked out at 5.03 and the “Maximum effect: R.M.E. (relative maximum effectiveness)” value is given as 2.14. Besides, in data set [2], the “Effect at the maximum dose, higher than that of procainamide” value was determined as 114% and the “Antiarrhythmic activity greater than that of procainamide” value is “about 5 times”.
For the compound `CC1CN=C(c2ccc(-c3nsc4ccccc34)cc2)N1` (stereo not drawn) [Example 3, 3-[4-(Methylimidazolin-2-yl)-phenyl]-1,2-benzisothiazole hydrochloride], in “in vivo”, the selectivity ratio amounted to 2.76 and the LD50 at 168 h was 90.5 mg/kg. Besides, the “Therapeutic range (LD 50 / ED 50%) greater than for procainamide” value in the data set on female Swiss mice is 2.8 times. In the data set on isolated auricle, the “Stimulation time/tension relationship, effect relative to quinidine” value is recorded as 1.5 times the effect of quinidine. For the same compound, in data set [2], the ED50 came out at 32.7 mg/kg, the “Maximum effect: Δ% (increase in duration of aconitine infusion)” value worked out at 233%, the “Antiarrhythmic effect: R.E. (relative effect)” value was 4.80 and the “Maximum effect: R.M.E. (relative maximum effectiveness)” value was determined as 1.73. In data set [2], the “Effect at the maximum dose, higher than that of procainamide” value was determined as 73% and the “Antiarrhythmic activity greater than that of procainamide” value is reported as “about 5 times”.
For the compound `CCN(CC)CCNC(=O)c1ccc(N)cc1` [Procainamide, procainamide, reference compound], in the data set “in vivo”, the LD50 at 168 h was found to be 227 mg/kg. Also, in data set [2], the ED50 amounted to 157 mg/kg and the “Maximum effect: Δ% (increase in duration of aconitine infusion)” value worked out at 135%.

For the origin of these results see US4206217A, “3-[4-(1,3-Diazacycloalken-2-yl)-phenyl]-1,2-benzisothiazoles, their manufacture, and drugs containing these compounds” (BASF Aktiengesellschaft, priority 1977, dated 1980).
